This is an account of results in US5792656A (priority 1995, dated 1998).

Data set [1] deals with hexokinase (low Km Hexokinases I, II, and III). The conditions noted are these: cited from earlier work.
The target in data set [2] is T1, GLUT-1 low Km glucose transporter of untransfected parental AtT-20ins cells (Mus musculus, UniProt P17809).
T1 sequence (P17809 1-492): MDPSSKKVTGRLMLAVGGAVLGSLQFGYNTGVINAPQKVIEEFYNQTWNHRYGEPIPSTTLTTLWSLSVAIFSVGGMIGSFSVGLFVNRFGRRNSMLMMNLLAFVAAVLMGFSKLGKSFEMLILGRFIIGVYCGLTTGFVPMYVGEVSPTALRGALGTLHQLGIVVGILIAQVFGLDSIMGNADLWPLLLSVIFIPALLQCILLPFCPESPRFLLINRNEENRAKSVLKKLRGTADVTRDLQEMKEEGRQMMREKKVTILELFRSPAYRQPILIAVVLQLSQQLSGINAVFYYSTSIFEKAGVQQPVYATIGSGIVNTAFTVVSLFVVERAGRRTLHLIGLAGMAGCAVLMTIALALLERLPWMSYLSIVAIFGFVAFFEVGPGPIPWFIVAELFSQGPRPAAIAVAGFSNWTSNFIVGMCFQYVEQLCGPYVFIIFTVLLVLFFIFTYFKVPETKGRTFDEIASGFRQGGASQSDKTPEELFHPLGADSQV
As to the kind of experiment: Glucose transport (3-O-methyl glucose uptake) in untransfected parental AtT-20ins cells. It counts as cell-based. The note with it: untransfected parental AtT-20ins line.

Another data set deals with parental AtT-20ins cells. As to the kind of experiment: Insulin secretion, static 3 hour incubation, parental cells. It counts as cell-based. The conditions noted are these: 0-20 mM glucose, 3 hours static incubation.
In data set [3] the target is T2, rat islet GLUT-2 glucose transporter expressed in AtT-20ins cells (lines CGT-5, CGT-6) (Rattus norvegicus, UniProt P12336).
T2 sequence (P12336 1-522): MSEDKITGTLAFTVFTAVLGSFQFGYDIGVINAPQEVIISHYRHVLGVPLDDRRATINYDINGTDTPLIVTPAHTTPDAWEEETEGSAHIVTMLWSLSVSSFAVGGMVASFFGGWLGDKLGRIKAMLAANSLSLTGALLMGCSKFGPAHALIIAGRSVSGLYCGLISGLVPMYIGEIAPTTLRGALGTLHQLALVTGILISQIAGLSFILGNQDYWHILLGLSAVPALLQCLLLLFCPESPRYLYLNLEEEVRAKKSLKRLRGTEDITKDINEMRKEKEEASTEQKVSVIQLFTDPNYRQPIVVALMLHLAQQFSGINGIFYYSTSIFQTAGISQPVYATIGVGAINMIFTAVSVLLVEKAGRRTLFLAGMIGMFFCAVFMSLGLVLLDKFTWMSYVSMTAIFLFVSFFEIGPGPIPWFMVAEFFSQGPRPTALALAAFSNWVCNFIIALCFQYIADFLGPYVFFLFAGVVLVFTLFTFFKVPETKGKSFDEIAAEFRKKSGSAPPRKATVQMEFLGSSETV

The target of data set [4] is T3, high Km glucose transport activity (GLUT-2) of isolated, dispersed islets of Langerhans (Rattus norvegicus, UniProt P12336).
T3 construct: host or cells: isolated, dispersed islets of Langerhans (Johnson et al., 1990a)
T3 sequence (P12336 1-522): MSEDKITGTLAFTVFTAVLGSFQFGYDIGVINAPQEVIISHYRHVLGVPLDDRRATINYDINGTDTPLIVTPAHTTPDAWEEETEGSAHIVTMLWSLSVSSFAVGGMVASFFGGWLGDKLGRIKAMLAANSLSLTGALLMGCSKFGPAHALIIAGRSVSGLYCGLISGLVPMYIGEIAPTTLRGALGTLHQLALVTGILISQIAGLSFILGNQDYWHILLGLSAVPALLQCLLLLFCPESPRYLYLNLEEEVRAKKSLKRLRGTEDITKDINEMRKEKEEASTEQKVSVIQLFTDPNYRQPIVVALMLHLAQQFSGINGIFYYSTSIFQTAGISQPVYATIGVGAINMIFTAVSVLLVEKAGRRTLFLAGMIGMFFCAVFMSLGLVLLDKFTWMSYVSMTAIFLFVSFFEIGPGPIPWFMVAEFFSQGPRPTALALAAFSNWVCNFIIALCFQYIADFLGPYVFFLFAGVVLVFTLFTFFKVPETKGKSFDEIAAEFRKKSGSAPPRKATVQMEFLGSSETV
The note with it: cited from earlier work.

Data set [5] concerns the target T4, glucokinase (Hexokinase IV) (Homo sapiens, UniProt P35557).
T4 sequence (P35557 1-465): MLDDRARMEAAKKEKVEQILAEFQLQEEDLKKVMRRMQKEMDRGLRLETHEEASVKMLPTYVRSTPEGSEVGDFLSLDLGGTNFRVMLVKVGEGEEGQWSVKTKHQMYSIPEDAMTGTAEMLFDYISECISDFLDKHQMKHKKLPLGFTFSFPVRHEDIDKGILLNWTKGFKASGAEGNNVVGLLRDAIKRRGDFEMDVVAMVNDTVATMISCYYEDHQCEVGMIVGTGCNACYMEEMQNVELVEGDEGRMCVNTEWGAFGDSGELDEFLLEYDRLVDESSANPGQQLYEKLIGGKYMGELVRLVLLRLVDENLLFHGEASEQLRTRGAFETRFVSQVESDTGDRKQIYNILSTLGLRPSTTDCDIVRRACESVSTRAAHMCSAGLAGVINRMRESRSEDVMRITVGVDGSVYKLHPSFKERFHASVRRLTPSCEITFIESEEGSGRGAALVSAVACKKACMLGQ
The note with it: read-out: Km for glucose; cited from earlier work.

The target of data set [6] is T5, glucokinase, islet isoform (Rattus norvegicus, UniProt P17712).
T5 sequence (P17712 1-465): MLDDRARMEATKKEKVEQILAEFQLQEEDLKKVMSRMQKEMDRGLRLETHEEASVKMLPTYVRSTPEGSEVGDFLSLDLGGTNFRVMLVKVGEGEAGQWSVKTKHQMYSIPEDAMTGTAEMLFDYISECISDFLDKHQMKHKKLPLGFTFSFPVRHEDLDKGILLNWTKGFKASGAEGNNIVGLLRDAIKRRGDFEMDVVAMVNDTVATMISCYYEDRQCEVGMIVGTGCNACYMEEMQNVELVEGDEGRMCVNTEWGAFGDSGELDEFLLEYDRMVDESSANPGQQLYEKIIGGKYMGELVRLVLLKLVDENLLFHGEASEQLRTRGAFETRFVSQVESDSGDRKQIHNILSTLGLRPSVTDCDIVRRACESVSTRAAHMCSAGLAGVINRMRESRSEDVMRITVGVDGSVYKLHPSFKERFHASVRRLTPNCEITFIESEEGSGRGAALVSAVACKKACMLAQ
The note with it: read-out: Km for glucose; cited from earlier work.

The target of data set [7] is T6, glucokinase, liver isoform (Rattus norvegicus, UniProt P17712).
T6 sequence (P17712 1-465 isoform P17712-3): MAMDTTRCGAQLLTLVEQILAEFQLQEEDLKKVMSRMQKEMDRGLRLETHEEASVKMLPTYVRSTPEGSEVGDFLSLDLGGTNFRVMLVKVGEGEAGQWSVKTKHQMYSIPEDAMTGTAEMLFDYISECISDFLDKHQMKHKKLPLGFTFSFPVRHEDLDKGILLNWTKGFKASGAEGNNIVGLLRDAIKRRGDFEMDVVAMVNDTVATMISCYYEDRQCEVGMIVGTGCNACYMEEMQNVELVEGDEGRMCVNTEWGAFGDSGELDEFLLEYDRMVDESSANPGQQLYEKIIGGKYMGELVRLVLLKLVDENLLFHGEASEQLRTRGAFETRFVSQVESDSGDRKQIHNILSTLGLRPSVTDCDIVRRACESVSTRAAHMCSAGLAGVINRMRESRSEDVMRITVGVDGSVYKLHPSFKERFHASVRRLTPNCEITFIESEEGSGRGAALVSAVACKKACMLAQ
The conditions noted are these: read-out: Km for glucose; cited from earlier work.

Data set [8] has as its system GLUT-2 transfected AtT-20ins cells (line CGT-6). As to the kind of experiment: cells. The conditions noted are these: Mus musculus, 3 h, read-out: maximal stimulation of insulin release relative to 0 mM glucose.
Data set [9] deals with CGT-6 (GLUT-2 expressing AtT-20ins) cells. As to the kind of experiment: cells.
In a further data set the test system is RIN 1046-38 cells. The conditions noted are these: RIN 1046-38 cells (Clark, et al., 1990); cited from earlier work.
Substrate in data set [10]: OC[C@H]1OC(O)[C@H](O)[C@@H](O)[C@@H]1O
As to the kind of experiment: cells, lysate or membranes. The conditions noted are these: 3-O-methyl glucose uptake, 37.0 °C.

[11] abbreviates: lines CGT-5, CGT-6 stated together, 3-O-methyl glucose uptake.

Values joined by “and” are separate entries in the source; they are usually repeats but may differ in a detail not shown here. Equal values may be shown once. “Also recorded” adds a separate entry of the source. Read-outs that look alike come from different tables or passages of the source.

Turning to `O=P(O)(O)OC[C@H]1OC(O)[C@H](O)[C@@H](O)[C@@H]1O` (some centres unmarked) [glucose-6-phosphate, reference compound], the “inhibition of hexokinase by glucose-6-phosphate” value in data set [1] (10 mM glucose-6-phosphate) is given as “potently inhibits; also recorded: potent inhibitor”.
In the case of `OC[C@H]1OC(O)[C@H](O)[C@@H](O)[C@@H]1O` (some centres unmarked) [glucose], the Vmax in data set [2] was 0.5 mmoles/min/liter cell space; in data set [3] (line CGT-5, Lineweaver-Burke analysis), 25 mmoles/min/liter cell space; in data set [3] (line CGT-6, Lineweaver-Burke analysis), 17 mmoles/min/liter cell space; in data set [3] (setting [11]), 19 mmoles/min/liter cell space; in data set [4] (dispersed islets (Johnson, et al., 1990a)), 24 mmoles/min/liter cell space. Moreover, in the data set with parental AtT-20ins cells, the “effect of glucose on insulin release” value was “no significant effect”. For the same molecule, in [3] (setting [11]), the “estimated Km for glucose” value was 18 mM. The Km was 18 mM in [4] (read-out: Km for glucose, dispersed islets (Johnson, et al., 1990a)); ~0.05 mM in [1] (read-out: Km for glucose, Hexokinases I, II, and III); ~8 mM and 8 to 10 mM in [5]; 8 to 10 mM and ~10 mM in data set [6]; 8 to 10 mM in data set [7]. Moreover, the maximal fold induction in [8] is ~2.5. Moreover, the fold induction at 5000 µM in data set [9] (5 min, read-out: insulin secretion second plateau above pre-glucose level) came out at 3; in data set [9] (read-out: increase in insulin release, first phase, over baseline without glucose), 10. The “glucose concentration at which stimulation of insulin release is maximal” value in the data set with RIN 1046-38 cells was 0.5 mM.

B1: GLUT-1 low Km glucose transporter of untransfected parental AtT-20ins cells (Mus musculus) (protein)
chain: MDPSSKKVTGRLMLAVGGAVLGSLQFGYNTGVINAPQKVIEEFYNQTWNHRYGEPIPSTTLTTLWSLSVAIFSVGGMIGSFSVGLFVNRFGRRNSMLMMNLLAFVAAVLMGFSKLGKSFEMLILGRFIIGVYCGLTTGFVPMYVGEVSPTALRGALGTLHQLGIVVGILIAQVFGLDSIMGNADLWPLLLSVIFIPALLQCILLPFCPESPRFLLINRNEENRAKSVLKKLRGTADVTRDLQEMKEEGRQMMREKKVTILELFRSPAYRQPILIAVVLQLSQQLSGINAVFYYSTSIFEKAGVQQPVYATIGSGIVNTAFTVVSLFVVERAGRRTLHLIGLAGMAGCAVLMTIALALLERLPWMSYLSIVAIFGFVAFFEVGPGPIPWFIVAELFSQGPRPAAIAVAGFSNWTSNFIVGMCFQYVEQLCGPYVFIIFTVLLVLFFIFTYFKVPETKGRTFDEIASGFRQGGASQSDKTPEELFHPLGADSQV
For the molecule B1, the Km in data set [10] (other: untransfected parental AtT-20ins line) came to 2 mM.

B2: rat islet GLUT-2 glucose transporter expressed in AtT-20ins cells (lines CGT-5, CGT-6) (Rattus norvegicus) (protein)
chain: MSEDKITGTLAFTVFTAVLGSFQFGYDIGVINAPQEVIISHYRHVLGVPLDDRRATINYDINGTDTPLIVTPAHTTPDAWEEETEGSAHIVTMLWSLSVSSFAVGGMVASFFGGWLGDKLGRIKAMLAANSLSLTGALLMGCSKFGPAHALIIAGRSVSGLYCGLISGLVPMYIGEIAPTTLRGALGTLHQLALVTGILISQIAGLSFILGNQDYWHILLGLSAVPALLQCLLLLFCPESPRYLYLNLEEEVRAKKSLKRLRGTEDITKDINEMRKEKEEASTEQKVSVIQLFTDPNYRQPIVVALMLHLAQQFSGINGIFYYSTSIFQTAGISQPVYATIGVGAINMIFTAVSVLLVEKAGRRTLFLAGMIGMFFCAVFMSLGLVLLDKFTWMSYVSMTAIFLFVSFFEIGPGPIPWFMVAEFFSQGPRPTALALAAFSNWVCNFIIALCFQYIADFLGPYVFFLFAGVVLVFTLFTFFKVPETKGKSFDEIAAEFRKKSGSAPPRKATVQMEFLGSSETV
Turning to B2, the Km was found to be 16 mM in [10] (other: line CGT-5, Lineweaver-Burke analysis) and 17 mM in data set [10] (other: line CGT-6, Lineweaver-Burke analysis).

Broadly, the Km is the concentration of substrate that gives half-maximal velocity.
